# Data from a melting point compilation (Tetko et al.).
row,Structure (SMILES),melting point
1,Cc1ncsc1C(=O)Cl,62 to 64 °C
2,O=C(O)CCc1nc(Cc2ccccc2)no1,66 to 68 °C
3,CC1CCCN(C(N)=S)C1 (stereo not drawn),103 to 105 °C
4,O=C(O)Cn1nnc(-c2cccs2)n1,220 to 222 °C
5,O=C(O)CCNS(=O)(=O)c1c(Cl)cccc1Cl,119 to 121 °C
6,O=C1CCC2(CC1)NC(=O)NC2=O,199 to 201 °C
7,CS(=O)(=O)Nc1ccc(S(=O)(=O)Cl)c(F)c1,149 to 151 °C
8,N#Cc1c(S)nc2c(c1-c1ccco1)CCC2,279 to 281 °C
9,OC(c1ccncc1)c1ccc(F)cc1 (stereo not drawn),136 to 138 °C
10,N#CCC(=O)c1ccccc1F,51 to 53 °C
11,Nc1cc(-c2ccco2)nn1-c1cccc([N+](=O)[O-])c1,185 to 187 °C
12,NCC(O)COCc1ccccc1 (stereo not drawn),74 to 76 °C
13,Cc1cc(C#N)ccc1S(=O)(=O)Cl,64 to 66 °C
14,Nc1ccc(S(N)(=O)=O)cc1Cl,156 to 158 °C
15,CC(N)c1ccc(NS(C)(=O)=O)cc1 (stereo not drawn),142 to 144 °C
16,COc1cccc(C(=O)O)c1OC(F)F,152 to 154 °C
17,CC(C)c1cc(C(=O)O)c2ccccc2n1,141 to 143 °C
18,Cc1ccc(-n2c(C)ccc2C)cc1N,83 to 85 °C
19,CNc1cc(C#N)c2ccccc2n1,166 to 168 °C
20,COc1c(C)cnc(Cn2ccc(N)n2)c1C,59 to 61 °C
21,FC(F)(F)CNC(=S)N1CCOCC1,103 to 105 °C
22,NC(=NO)C(c1ccccc1)c1ccccc1,124 to 126 °C
23,Cc1noc2ncc(S(=O)(=O)Cl)cc12,110 to 112 °C
24,Sc1nnc(N2CCOCC2)n1Cc1ccco1,151 to 153 °C
25,CCn1c(C)c(C(=O)O)c2cc(OC)ccc21,173 to 175 °C
26,O=C(O)c1sc(-c2ccccc2)cc1OCc1ccccc1,178 to 180 °C

row,Structure (SMILES),melting point
1,O=C(O)Cc1csc(-c2ccsc2)n1,110 to 112 °C
2,Nc1ccc(S(=O)(=O)C(F)F)cc1,102 to 104 °C
3,O=C(O)c1ccc(-c2cccc3ccccc23)s1,249 to 251 °C
4,Cc1nc(CCC(=O)O)oc1-c1ccccc1,162 to 164 °C
5,CN(C)C(=S)Oc1cccc(C=O)c1,65 to 67 °C
6,O=S(=O)(Cl)Cc1ccc(Cl)nc1,59 to 61 °C
7,NNc1ncccc1C(F)(F)F,71 to 73 °C
8,O=C(O)COc1ccc2oc3c(c2c1)CCCC3,188 to 190 °C
9,Cc1ccc(N)c(Cl)c1Cl,45 to 47 °C
10,CC(O)(c1ccc([N+](=O)[O-])cc1)C(F)(F)F (stereo not drawn),86 to 88 °C
11,COc1cccc(CSCC(N)C(=O)O)c1 (stereo not drawn),194 to 196 °C
12,O=Cc1cc(Cl)c2c(c1)OCCO2,79 to 83 °C
13,C#CCn1ccc2ccccc21,43 to 45 °C
14,c1ccc2sc(NCCCN3CCOCC3)nc2c1,182 to 184 °C
15,O=C(O)c1cc(F)c(O)c(F)c1,160 to 162 °C
16,O=c1[nH]cnc2cc(F)c(F)cc12,264 to 266 °C
17,O=C(CC(F)(F)F)c1cc(F)ccc1F,45 to 47 °C
18,CCn1ccc(=O)nc1S,242 to 244 °C
19,O=C(O)c1ccc(Oc2cccnc2)cc1,204 to 206 °C
20,O=C1CCCc2c(Br)cccc21,50 to 52 °C
21,NC(=O)CNCC(N)=O,129 to 131 °C
22,CC(C)c1nn(-c2ccccc2)cc1C=O,59 to 61 °C
23,COc1cccc(-n2nc(C)c(CCC(=O)O)c2C)c1,104 to 115 °C
24,Cc1c(C)n(Cc2ccco2)c2ncnc(N)c12,180 to 182 °C
25,NC1(c2cccc(F)c2)CCOCC1,48 to 50 °C

# Now from value to compound:
row,melting point,Structure (SMILES)
1,231 to 233 °C,CCOC(=O)c1[nH]nc2ccc(Br)cc12
2,54 to 56 °C,c1ccc(NCc2cccc3ccccc23)cc1
3,111 to 113 °C,CC(O)c1ccccc1NC(=O)c1ccccc1 (stereo not drawn)
4,48 to 50 °C,O=S(=O)(Cl)c1ccc(Cl)nc1
5,220 to 222 °C,Cc1nc2ncnn2c(C)c1CC(=O)O
6,64 to 66 °C,NCC1(O)CCC1
7,71 to 73 °C,NNC(=O)C1CCS(=O)(=O)C1 (stereo not drawn)
8,134 to 136 °C,CC(C)C(C)(CC(=O)N1CCOCC1)C(=O)O (stereo not drawn)
9,109 to 111 °C,Cc1ccc2cc(CCl)c(Cl)nc2c1C
10,136 to 138 °C,CC(C)(C)C(=O)N1CCCC1C(=O)O (stereo not drawn)
11,102 to 104 °C,CS(=O)(=O)Nc1ccccc1N
12,188 to 190 °C,COc1ccc(-c2nn(-c3ccccc3)cc2C(=O)O)cc1OC
13,169 to 171 °C,O=C1CC2(CCCCC2)CC(=O)N1
14,62 to 64 °C,NCCC(=O)Nc1ccccc1
15,137 to 139 °C,CCC(CC)n1nccc1C(=O)O
16,134 to 136 °C,Cc1sc(N)c(C#N)c1C
17,69 to 71 °C,O=C(OCc1ccc(Br)cc1)c1ccccc1O
18,219 to 221 °C,O=c1cc(Cl)nc2ccc(Cl)cn12
19,177 to 179 °C,CCn1c(C(=O)O)cc2ccccc21
20,305 to 307 °C,O=C(O)c1cccc(NC(=O)c2ccc3[nH]cnc3c2)c1
21,144 to 146 °C,NNc1ccc(S(=O)(=O)NCc2ccco2)cn1
22,218 to 221 °C,O=[N+]([O-])c1cc(Cl)cc(Cl)c1S(=O)(=O)Cl
23,155 to 157 °C,COc1cc(C=O)ccc1OCC(N)=O
24,81 to 83 °C,CC(C)CC1(C)CC(=O)NC1=O (stereo not drawn)
25,189 to 191 °C,O=C(O)c1noc(-c2ccccc2F)n1
26,102 to 104 °C,CCOc1ccc(CCC(=O)O)cc1

row,melting point,Structure (SMILES)
1,164 to 166 °C,NC(=O)CCC(NS(=O)(=O)c1cccc(C(F)(F)F)c1)C(=O)O (stereo not drawn)
2,60 to 62 °C,N#Cc1cccnc1C1CC1
3,163 to 165 °C,COC(=O)c1cc([N+](=O)[O-])ccc1N
4,192 to 194 °C,O=C(CC1CCCCC1)Nc1cccc2c1CCCN2
5,208 to 210 °C,c1cc(-c2ncc[nH]2)ccn1
6,93 to 95 °C,O=[N+]([O-])c1ccc(Cl)c2c1CCCN2
7,107 to 109 °C,COc1cc(CO)c([N+](=O)[O-])cc1OCC(F)F
8,58 to 60 °C,O=C1CC(C(=O)O)C1
9,194 to 196 °C,Cc1nc(Cc2nnc(S)o2)cs1
10,190 to 192 °C,O=C(O)c1oc2ccccc2c1COc1ccccc1Cl
11,75 to 77 °C,O=[N+]([O-])c1cc(Cl)cnc1Br
12,178 to 180 °C,CC(=O)c1ccc(S(N)(=O)=O)cc1
13,70 to 72 °C,COc1ccnc(CO)c1
14,122 to 124 °C,CCN(CC)S(=O)(=O)c1ccc(Oc2cccc(C)c2)c(N)c1
15,189 to 191 °C,CC(C)(C)c1ccc(C2(C(=O)O)CCCC2)cc1
16,142 to 144 °C,COCCNS(=O)(=O)c1ccc(Cl)c(C(=O)O)c1
17,147 to 149 °C,Cc1ccc(CNC(=S)Nc2ccccc2)cc1
18,120 to 122 °C,Nc1ccc2oc(C(F)(F)F)nc2c1
19,169 to 171 °C,O=C(Nc1ccccc1)NC1CCNCC1
20,243 to 245 °C,O=C(COc1ccccc1C(=O)O)Nc1cccc(C(F)(F)F)c1
21,139 to 141 °C,CC(C)(C)c1cc(NC(=O)CBr)on1
22,237 to 239 °C,NC(=NO)c1ccc(Cn2cnc3ccccc32)cc1
23,142 to 144 °C,CC(C)n1nc(C(=O)O)c2ccccc2c1=O
24,192 to 196 °C,N=c1nc(S)ss1
25,166 to 168 °C,Nc1nc2ccc(F)cn2n1
26,146 to 148 °C,CCCS(=O)(=O)N1CCC(=NO)CC1
